Here are results for two compounds from patent publication US11260060B2, “Methods and formulations for treatment of and/or protection against acute liver failure and other hepatotoxic conditions” (EGETIS THERAPEUTICS AB, priority 2016, dated 2022).

Data set [1] concerns acetaminophen-induced ALF in male B6C3F1 mice. As to the kind of experiment: Animal deaths in acetaminophen-induced ALF mice within 12 hour sampling period. It is filed as in vivo. To be noted: within 12 hours after APAP 300 mg/kg i.p., i.v. treatment 1-6 hours post APAP, pooled doses. From the text: This Example studied the pharmaceutical effects of individual and combined therapies on animal deaths and involved male B6C3F1 mice. Even though serum enzyme activity studies are strongly indicative of liver failure or protection, it is also important to consider other data such as that related to subject animal deaths (%) as a function of the pharmacological treatment. The experiments of this Example studied the pharmaceutical effects of individual and combined therapies on animal deaths in male B6C3F1 mice. The mice were fasted for 8-10 hours and ALF was induced with 300 mg/kg acetaminophen (APAP), i.p., with treatment as specified in the following test groups: • APAP control (n=81, APAP 300 mg/kg i.p.), • NAC (n=53, 30-300 mg/kg i.v., 1-6 hours post APAP), • CaM (n=97, 0.3-10 mg/kg i.v., 1-6 hours post APAP), • CaDPDP (n=10, 3-10 mg/kg i.v., 6 hours post APAP), and • NAC/CaM (n=28, NAC 300 mg/kg, combined with 0.3-10 mg/kg CaM i.v., 2.5-6 hours post APAP).

Data set [2] is described as follows: Forced temperature degradation of a NAC/CaM mixture at 70° C. for 6 hours. It is filed as physicochemical. To be noted: NAC/CaM mixture in deionised water. From the text:
This Example describes short and long term stability studies involving mixtures of Calmangafodipir and NAC. Each mixture was formed by adding CaM (in the form of a trisodium salt powder) and NAC to deionised water and mixing on a Vortex shaker. The solution was then transferred to an amber vial. In these studies, typically no additives or stabilizers were used. Standard degradation studies undertaken at short term used the known method of “forced” temperature degradation by storing solutions at 70° C. for 6 hours (to indicate general longer-term storage performance). Samples were withdrawn at specified time points and analyzed by standard spectroscopic methods for N-acetylcysteine (NAC), Calmangafodipir (CaM) and Calmangafodipir-related substances.

Data set [3] relates to acetaminophen-induced ALF in male B6C3F1 mice. The experiment in a line: Acetaminophen-induced ALF mouse model, ALAT at 12 hours. Format: in vivo. The settings on record: NAC 30-300 mg/kg 1 hour post 300 mg/kg i.p. acetaminophen, FIG. 7. The protocol: In each experiment, an i.p. injection of 300 mg/kg acetaminophen was made to male B6C3F1 mice to cause acetaminophen-induced ALF. In a first experiment, a 300 mg/kg dosage of NAC was administered 1-6 hours after acetaminophen administration. In a second experiment, NAC was administered in a dosage of 30-300 mg/kg NAC 1 hour after acetaminophen administration. In a third experiment, a dosage of 0.3-10 mg/kg calmangafodipir (CaM) was administered 6 hours post acetaminophen administration. In each experiment, ALAT was measured 12 hours following the i.p. injection of 300 mg/kg acetaminophen. FIGS. 6 to 8 show ALF response to administration of NAC and CaM, as detected by monitoring ALAT. […] FIG. 7 indicates the NAC dose-response of NAC administration of 30-300 mg/kg NAC 1 hour post acetaminophen administration. Mean±SEM ALAT levels at 12 hours following i.p. injection of 300 mg/kg acetaminophen in male B6C3F1 mice (n=4-11 per bar) are shown. […] Median±interquartile ALAT levels at 12 hours following i.p. injection of acetaminophen in male B6C3F1 mice (n=4-16 per bar) are shown. Due to some outlier values, and variability from the two experiments, both of which are not unexpected in such model system studies, the data points are plotted individually as well as the median values±inter-quartile range.

On to `CC(=O)N[C@@H](CS)C(=O)O` [NAC, N-acetylcysteine], for which, in data set [1], the “Deaths, %” value is reported as 8% and the “Deaths, no.” value amounted to 4. Moreover, the “concentration of NAC during forced degradation” value in data set [2] is reported as “remained constant”. In data set [3], the “NAC dose-response of ALAT levels” value was “No clear dose-response could be detected”.

In the case of calmangafodipir [CaM], in data set [1], the “Deaths, %” value worked out at 8% and the “Deaths, no.” value is reported as 8. Further, in data set [1] (listed as calmangafodipir), the “Deaths, %” value came to 8%. In addition, the “decrease in CaM concentration during forced degradation” value in data set [2] is on record as “about 1 % per hour”.
